Counter-ions that a name gives are not always drawn. Like-named read-outs stand apart in the source and are kept apart here.
Tested on: total α-tubulin
Experiment: cell-based assay of MT-stabilization: total α-tubulin in QBI293 cell lysates by ELISA
Conditions: QB1293 cells; for fold induction at 1 µM / fold induction at 10 µM: QBI293, 4 h
Experimental: All test compounds were evaluated in a previously described cell-based assay of MT-stabilization (see Kovalevich, J., et al. (2016) Characterization of Brain-Penetrant Pyrimidine-Containing Molecules with Differential Microtubule-Stabilizing Activities Developed as Potential Therapeutic Agents for Alzheimer's Disease and Related Tauopathies. J Pharmacol Exp Ther 357, 432-450, incorporated herein by reference), in which compound-dependent changes in tubulin polymerization and total tubulin levels were determined after 4 h of incubation of QBI293 cells with 1 and 10 μM compound via quantification of acetylated α-tubulin and total tubulin in cell lysates by ELISA.
Novel C6 nitrile- and alkyne-substituted triazolopyrimidine examples that have improved in vitro activity relative to previously described examples, with the general structure depicted in Formula I. The activity of the novel C6-nitrile substituted compounds were tested in a previously described cellular assay of MT-stabilization (Kovalevich, J., et al. (2016)). As summarized in Table 2. below, eighteen examples were synthesized and tested. In all cases, these compounds were confirmed to be active Class I triazolopyrimidines. […] Table 2 provides fold-changes in acetylated α-tubulin and total α-tubulin levels in QB1293 cells after 4 h incubation with test compounds at either 1 or 10 μM. Data are expressed as the fold-change relative to vehicle-treated cells. *p<0.05 and **p<0.01 by one-way ANOVA.
Compounds produced according to the preceding synthetic schemes were for microtubule stabilization. Fold-changes in acetylated α-tubulin (AcTub) and α-tubulin (α-Tub) levels in QB1293 cells after 4 h incubation with test compounds at either 1 or 10 μM. Reported values for AcTub and α-Tub represent the fold-change over control (DMSO)-treated cells (*p<0.05 and **p<0.01 by one-way ANOVA); numbers in parentheses represent the fold-change of AcTub over positive control-treated cells (i.e., 100 nM of cevipabulin). Changes of +/−15% of control are deemed to be within the day-to-day assay variability and non-significant.

[1] = 4 h incubation, 1 μM compound, relative to vehicle-treated cells, read-out: α-Tub 1 μM (fold-change in total α-tubulin)
[2] = 4 h incubation, 10 μM compound, relative to vehicle-treated cells, read-out: α-Tub 10 μM (fold-change in total α-tubulin)
[3] = 4 h incubation, 1 μM compound, relative to vehicle-treated cells
[4] = Table 4, 4 h, 1 μM, read-out: α-Tub l μM (fold-change over control (DMSO)-treated cells)
[5] = Table 4, 4 h, 10 μM, read-out: α-Tub 10 μM (fold-change over control (DMSO)-treated cells)

| Compound | fold induction at 1 µM [1] | fold induction at 10 µM [2] | fold induction at 1 µM [4] | also measured |
| --- | --- | --- | --- | --- |
| CC(C)[C@@H](Nc1c(-c2ccc(C#N)cc2F)c(Cl)nc2ncnn12)C(F)(F)F [Compound 63, (R)-4-(5-chloro-7-((1,1,1-trifluoro-3-methylbutan-2-yl)amino)-[1,2,4]triazolo[1,5-a]pyrimidin-6-yl)-3-fluorobenzonitrile] | 0.99 | 0.98 | – | – |
| N#Cc1ccc(-c2c(Cl)nc3ncnn3c2N2CCCCCC2)c(F)c1 [Compound 76, 4-(7-(Azepan-1-yl)-5-chloro-[1,2,4]triazolo[1,5-a]pyrimidin-6-yl)-3-fluorobenzonitrile] | – | 0.99 | – | α-Tub 1 μM (fold-change in total α-tubulin) [3]: 1.04 +/− 0.05 fold-change |
| C[C@@H](Nc1c(-c2c(F)cc(C#CCCN(C)C)cc2F)c(Cl)nc2ncnn12)C(C)(C)C [TAL-664, (R)-5-chloro-6-(4-(4-(dimethylamino)but-1-yn-1-yl)-2,6-difluorophenyl)-N-(3,3-dimethylbutan-2-yl)-[1,2,4]triazolo[1,5-a]pyrimidin-7-amine] | – | – | 0.88 | fold induction at 10 µM [5]: 0.96 |
| C[C@H](Nc1c(-c2c(F)cc(C#CCCCO)cc2F)c(Cl)nc2ncnn12)C(F)(F)F [TAL-642, (S)-5-(4-(5-chloro-7-((1,1,1-trifluoropropan-2-yl)amino)-[1,2,4]triazolo[1,5-a]pyrimidin-6-yl)-3,5-difluorophenyl)pent-4-yn-1-ol] | – | – | 0.93 | fold induction at 10 µM [5]: 0.87 |
| N#Cc1cc(F)c(-c2c(Cl)nc3ncnn3c2N2CCCCCC2)c(F)c1 [Compound 75, 4-(7-(Azepan-1-yl)-5-chloro-[1,2,4]triazolo[1,5-a]pyrimidin-6-yl)-3,5-difluorobenzonitrile] | 0.98 ± 0.03 | 0.99 | – | – |
| C[C@@H](Nc1c(-c2c(F)cc(C#CCCCO)cc2F)c(Cl)nc2ncnn12)C(C)(C)C [TAL-601, (R)-5-(4-(5-chloro-7-((3,3-dimethylbutan-2-yl)amino)-[1,2,4]triazolo[1,5-a]pyrimidin-6-yl)-3,5-difluorophenyl)pent-4-yn-1-ol] | – | – | 1.18 | – |
| C[C@H](Nc1c(-c2c(F)cc(C#N)cc2F)c(Cl)nc2ncnn12)C(F)(F)F [Compound 19, (S)-4-(5-Chloro-7-((1,1,1-trifluoropropan-2-yl)amino)-[1,2,4]triazolo[1,5-a]pyrimidin-6-yl)-3,5-difluorobenzonitrile] | 0.94 ± 0.02 | 0.95 ± 0.05 | – | – |
| CC(C)[C@@H](C)Nc1c(-c2ccc(C#N)cc2F)c(Cl)nc2ncnn12 [Compound 68, (R)-4-(5-chloro-7-((3-methylbutan-2-yl)amino)-[1,2,4]triazolo[1,5-a]pyrimidin-6-yl)-3-fluorobenzonitrile] | – | – | – | α-Tub 1 μM (fold-change in total α-tubulin) (4 h incubation, 1 μM compound, relative to vehicle-treated cells, listed as 52016 (68)): 0.95 +/− 0.02 fold-change; α-Tub 10 μM (fold-change in total α-tubulin) (4 h incubation, 10 μM compound, relative to vehicle-treated cells, listed as 52016 (68)): 0.92 +/− 0.01 fold-change |
| CNCC#Cc1cc(F)c(-c2c(Cl)nc3ncnn3c2N[C@H](C)C(C)(C)C)c(F)c1 [TAL-638, (R)-5-chloro-6-(2,6-difluoro-4-(3-(methylamino)prop-1-yn-1-yl)phenyl)-N-(3,3-dimethylbutan-2-yl)-[1,2,4]triazolo[1,5-a]pyrimidin-7-amine hydrochloride] | – | – | 0.93 | fold induction at 10 µM [5]: 1 |
| N#Cc1cc(F)c(-c2c(Cl)nc3ncnn3c2N2CCCCCCC2)c(F)c1 [Compound 77, 4-(7-(azocan-1-yl)-5-chloro-[1,2,4]triazolo[1,5-a]pyrimidin-6-yl)-3,5-difluorobenzonitrile] | – | 0.99 | – | α-Tub 1 μM (fold-change in total α-tubulin) [3]: 1.01 +/− 0.02 fold-change |
| C[C@H](Nc1c(-c2ccc(C#N)cc2F)c(Cl)nc2ncnn12)C(F)(F)F [Compound 61, (S)-4-(5-Chloro-7-((1,1,1-trifluoropropan-2-yl)amino)-[1,2,4]triazolo[1,5-a]pyrimidin-6-yl)-3-fluorobenzonitrile] | 1 | 1 | – | – |
| CC(C)[C@@H](C)Nc1c(-c2c(F)cc(C#N)cc2F)c(Cl)nc2ncnn12 [Compound 66, (R)-4-(5-chloro-7-((3-methylbutan-2-yl)amino)-[1,2,4]triazolo[1,5-a]pyrimidin-6-yl)-3,5-difluorobenzonitrile] | 0.93 | 0.94 | – | – |
| C[C@H](Nc1c(-c2c(F)cc(C#CCCO)cc2F)c(Cl)nc2ncnn12)C(F)(F)F [TAL-641, (S)-4-(4-(5-chloro-7-((1,1,1-trifluoropropan-2-yl)amino)-[1,2,4]triazolo[1,5-a]pyrimidin-6-yl)-3,5-difluorophenyl)but-3-yn-1-ol] | – | – | 0.98 | – |
| CNCC#Cc1cc(F)c(-c2c(Cl)nc3ncnn3c2N[C@H](C)C(C)C)c(F)c1 [TAL-637, (R)-5-chloro-6-(2,6-difluoro-4-(3-(methylamino)prop-1-yn-1-yl)phenyl)-N-(3-methylbutan-2-yl)-[1,2,4]triazolo[1,5-a]pyrimidin-7-amine hydrochloride] | – | – | 0.96 | fold induction at 10 µM [5]: 0.96 |
| CC(C)[C@@H](C)Nc1c(-c2c(F)cc(C#CCN(C)C)cc2F)c(Cl)nc2ncnn12 [TAL-546, (R)-5-chloro-6-(4-(3-(dimethylamino)prop-1-yn-1-yl)-2,6-difluorophenyl)-N-(3-methylbutan-2-yl)-[1,2,4]triazolo[1,5-a]pyrimidin-7-amine] | – | – | 0.98 | – |
| C#Cc1cc(F)c(-c2c(Cl)nc3ncnn3c2N[C@H](C)C(C)C)c(F)c1 [TAL-487, (R)-5-chloro-6-(4-ethynyl-2,6-difluorophenyl)-N-(3-methylbutan-2-yl)-[1,2,4]triazolo[1,5-a]pyrimidin-7-amine] | – | – | 0.98 | – |

From patent US20230167121A1, “SUBSTITUTED {1,2,4,} TRIAZOLO{1,5-A} PYRIMIDINE COMPOUNDS AND USE IN STABILIZING MICROTUBULES” (THE TRUSTEES OF THE UNIVERSITY OF PENNSYLVANIA, priority 2020, published 2023)
